Laboratory results: patent US11058678B2 (Enanta Pharmaceuticals, Inc., priority 2018, dated 2021)
pEC50: −log10 of the molar value.

System: HBV (2.2.15 cells)
Assay: Antiviral activity in 2.2.15 cells: reduction of viral product accumulation (qPCR of lysates, HBsAg or HBeAg ELISA)
Format: cell-based, hepatitis B virus (HBV)
Conditions: Hepatitis B virus, 120 h, day 5 post treatment, 50% reduction of viral product accumulation in lysates or supernatants vs no drug controls, readout (qPCR, HBsAg, HBeAg) not specified
Summary of the method: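 HBV-producing 2.2.15 cells, 35,000/well, treated with 5-fold serial compound dilutions at 0.5% final DMSO for 5 days. Lysate HBV DNA by qPCR or supernatant HBsAg/HBeAg by ELISA; EC50 is 50% reduction versus no-drug control, binned A<0.1 μM, B 0.1-1 μM, C>1 μM.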

SMILES	pEC50
CC(C)[C@@H]1Cc2c(cc(-c3ccn[nH]3)c3c2CCO3)-c2cc(=O)c(C(=O)O)cn21 [Example 106, (S)-5-isopropyl-9-oxo-12-(1H-pyrazol-5-yl)-2,3,4,9-tetrahydro-5H-furo[3,2-f]pyrido[2,1-a]isoquinoline-8-carboxylic Acid]	> 7.00
COCCCOc1cc2c(cc1-n1cccn1)-c1cc(=O)c(C(=O)O)cn1[C@@H](C(C)(C)C)C2 [Example 51, (R)-6-(tert-butyl)-9-(3-methoxypropoxy)-2-oxo-10-(1H-pyrazol-1-yl)-6,7-dihydro-2H-pyrido[2,1-a]isoquinoline-3-carboxylic Acid]	> 7.00
CCc1nnc(-c2cc3c(cc2OCCCOC)C[C@@H](C(C)(C)C)n2cc(C(=O)O)c(=O)cc2-3)o1 [Example 43, (S)-6-(tert-butyl)-10-(5-ethyl-1,3,4-oxadiazol-2-yl)-9-(3-methoxypropoxy)-2-oxo-6,7-dihydro-2H-pyrido[2,1-a]isoquinoline-3-carboxylic Acid]	> 7.00
CC1(C)Cc2c3c(cc(-c4cn[nH]c4)c2O1)-c1cc(=O)c(C(=O)O)cn1[C@H](C(C)(C)C)C3 [Example 147, (S)-5-(tert-butyl)-2,2-dimethyl-9-oxo-12-(1H-pyrazol-4-yl)-2,3,4,9-tetrahydro-5H-furo[3,2-f]pyrido[2,1-a]isoquinoline-8-carboxylic Acid]	< 6.00
CC(C)[C@@H]1Cc2c(cc(-c3cccnc3)c3c2CCO3)-c2cc(=O)c(C(=O)O)cn21 [Example 105, (S)-5-isopropyl-9-oxo-12-(pyridin-3-yl)-2,3,4,9-tetrahydro-5H-furo[3,2-f]pyrido[2,1-a]isoquinoline-8-carboxylic Acid]	> 7.00
CC(C)[C@@H]1Cc2c(cc(-c3ccccc3Cl)c3c2CCO3)-c2cc(=O)c(C(=O)O)cn21 [Example 113]	< 6.00
CC(C)(C)[C@@H]1Cc2c(cc(N3CC4(COC4)C3)c3c2CCO3)-c2cc(=O)c(C(=O)O)cn21 [Example 119, (S)-5-(tert-butyl)-9-oxo-12-(2-oxa-6-azaspiro[3.3]heptan-6-yl)-2,3,4,9-tetrahydro-5H-furo[3,2-f]pyrido[2,1-a]isoquinoline-8-carboxylic Acid]	< 6.00
CC(C)(C)[C@@H]1Cc2c(cc(-c3ccn[nH]3)c3c2CCO3)-c2cc(=O)c(C(=O)O)cn21 [Example 82, (S)-5-(tert-butyl)-9-oxo-12-(1H-pyrazol-5-yl)-2,3,4,9-tetrahydro-5H-furo[3,2-f]pyrido[2,1-a]isoquinoline-8-carboxylic Acid]	> 7.00
CC(C)[C@@H]1Cc2c(cc(-c3ccco3)c3c2CCO3)-c2cc(=O)c(C(=O)O)cn21 [Example 101, (S)-12-(furan-2-yl)-5-isopropyl-9-oxo-2,3,4,9-tetrahydro-5H-furo[3,2-f]pyrido[2,1-a]isoquinoline-8-carboxylic Acid]	> 7.00
CC(C)(C)[C@@H]1Cc2c(cc(-c3ccncc3)c3c2CCO3)-c2cc(=O)c(C(=O)O)cn21 [Example 74, (S)-5-(tert-butyl)-9-oxo-12-(pyridin-4-yl)-2,3,4,9-tetrahydro-5H-furo[3,2-f]pyrido[2,1-a]isoquinoline-8-carboxylic Acid]	> 7.00
CC1(C)Cc2c3c(cc(-c4ccsc4)c2O1)-c1cc(=O)c(C(=O)O)cn1[C@H](C(C)(C)C)C3 [Example 149, (S)-5-(tert-butyl)-2,2-dimethyl-9-oxo-12-(thiophen-3-yl)-2,3,4,9-tetrahydro-5H-furo[3,2-f]pyrido[2,1-a]isoquinoline-8-carboxylic Acid]	< 6.00
COCCCOc1cc2c(cc1-c1nnc(C(F)(F)F)o1)-c1cc(=O)c(C(=O)O)cn1[C@H](C(C)(C)C)C2 [Example 53, (S)-6-(tert-butyl)-9-(3-methoxypropoxy)-2-oxo-10-(5-(trifluoromethyl)-1,3,4-oxadiazol-2-yl)-6,7-dihydro-2H-pyrido[2,1-a]isoquinoline-3-carboxylic Acid]	> 7.00
COCCCOc1cc2c(cc1-c1nnco1)-c1cc(=O)c(C(=O)O)cn1[C@H](C(C)(C)C)C2 [Example 36, (S)-6-(tert-butyl)-9-(3-methoxypropoxy)-10-(1,3,4-oxadiazol-2-yl)-2-oxo-6,7-dihydro-2H-pyrido[2,1-a]isoquinoline-3-carboxylic Acid]	> 7.00
CC(C)[C@@H]1Cc2c(cc(-c3ccn(C)n3)c3c2CCO3)-c2cc(=O)c(C(=O)O)cn21 [Example 98, (S)-5-isopropyl-12-(1-methyl-1H-pyrazol-3-yl)-9-oxo-2,3,4,9-tetrahydro-5H-furo[3,2-f]pyrido[2,1-a]isoquinoline-8-carboxylic Acid]	< 6.00
COCCCCc1cc2c(cc1-c1ccc(F)cc1)-c1cc(=O)c(C(=O)O)cn1[C@H](C(C)(C)C)C2 [Example 134, (S)-6-(tert-butyl)-10-(4-fluorophenyl)-9-(4-methoxybutyl)-2-oxo-6,7-dihydro-2H-pyrido[2,1-a]isoquinoline-3-carboxylic Acid]	> 7.00
CC(C)[C@@H]1Cc2c(cc(-c3ccnn3C)c3c2CCO3)-c2cc(=O)c(C(=O)O)cn21 [Example 96, (S)-5-isopropyl-12-(1-methyl-1H-pyrazol-5-yl)-9-oxo-2,3,4,9-tetrahydro-5H-furo[3,2-f]pyrido[2,1-a]isoquinoline-8-carboxylic Acid]	> 7.00
COCCCOc1cc2c(cc1-c1cnc(OC)nc1)-c1cc(=O)c(C(=O)O)cn1[C@H](C(C)(C)C)C2 [Example 44, (S)-6-(tert-butyl)-9-(3-methoxypropoxy)-10-(2-methoxypyrimidin-5-yl)-2-oxo-6,7-dihydro-2H-pyrido[2,1-a]isoquinoline-3-carboxylic Acid]	> 7.00
CC(C)(C)[C@@H]1Cc2c(cc(-c3cn[nH]c3)c3c2CCO3)-c2cc(=O)c(C(=O)O)cn21 [Example 87, (S)-5-(tert-butyl)-9-oxo-12-(1H-pyrazol-4-yl)-2,3,4,9-tetrahydro-5H-furo[3,2-f]pyrido[2,1-a]isoquinoline-8-carboxylic Acid]	> 7.00
COCCCOc1cc2c(cc1N1CCCC1)-c1cc(=O)c(C(=O)O)cn1[C@@H](C(C)(C)C)C2 [Example 50, (R)-6-(tert-butyl)-9-(3-methoxypropoxy)-2-oxo-10-(pyrrolidin-1-yl)-6,7-dihydro-2H-pyrido[2,1-a]isoquinoline-3-carboxylic Acid]	> 7.00
COCCCOc1cc2c(cc1-c1cc(OC)nnc1OC)-c1cc(=O)c(C(=O)O)cn1[C@H](C(C)(C)C)C2 [Example 45, (S)-6-(tert-butyl)-10-(3,6-dimethoxypyridazin-4-yl)-9-(3-methoxypropoxy)-2-oxo-6,7-dihydro-2H-pyrido[2,1-a]isoquinoline-3-carboxylic Acid]	> 7.00
COc1cccc(-c2cc3c(c4c2OCC4)C[C@@H](C(C)C)n2cc(C(=O)O)c(=O)cc2-3)c1 [Example 92, (S)-5-isopropyl-12-(3-methoxyphenyl)-9-oxo-2,3,4,9-tetrahydro-5H-furo[3,2-f]pyrido[2,1-a]isoquinoline-8-carboxylic Acid]	> 7.00
COCCCOc1cc2c(cc1-c1ccccc1OC(F)(F)F)-c1cc(=O)c(C(=O)O)cn1[C@H](C(C)(C)C)C2 [Example 58, (S)-6-(tert-butyl)-9-(3-methoxypropoxy)-2-oxo-10-(2-(trifluoromethoxy)phenyl)-6,7-dihydro-2H-pyrido[2,1-a]isoquinoline-3-carboxylic Acid]	< 6.00
COCCCOc1cc2c(cc1-c1cn(C)nc1C)-c1cc(=O)c(C(=O)O)cn1[C@H](C(C)(C)C)C2 [Example 32, (S)-6-(tert-butyl)-10-(1,3-dimethyl-1H-pyrazol-4-yl)-9-(3-methoxypropoxy)-2-oxo-6,7-dihydro-2H-pyrido[2,1-a]isoquinoline-3-carboxylic Acid]	> 7.00
CC(C)[C@@H]1Cc2c(cc(-c3ccc(C(F)(F)F)cc3)c3c2CCO3)-c2cc(=O)c(C(=O)O)cn21 [Example 94, (S)-5-isopropyl-9-oxo-12-(4-(trifluoromethyl)phenyl)-2,3,4,9-tetrahydro-5H-furo[3,2-f]pyrido[2,1-a]isoquinoline-8-carboxylic Acid]	< 6.00
CC(C)[C@@H]1Cc2c(cc(-c3cnsc3)c3c2CCO3)-c2cc(=O)c(C(=O)O)cn21 [Example 103, (S)-5-isopropyl-12-(isothiazol-4-yl)-9-oxo-2,3,4,9-tetrahydro-5H-furo[3,2-f]pyrido[2,1-a]isoquinoline-8-carboxylic Acid]	> 7.00
CC1(C)Cc2c3c(cc(-c4cccs4)c2O1)-c1cc(=O)c(C(=O)O)cn1[C@H](C(C)(C)C)C3 [Example 152, (S)-5-(tert-butyl)-2,2-dimethyl-9-oxo-12-(thiophen-2-yl)-2,3,4,9-tetrahydro-5H-furo[3,2-f]pyrido[2,1-a]isoquinoline-8-carboxylic Acid]	< 6.00
CC(C)[C@@H]1Cc2c(cc(-c3ccoc3)c3c2CCO3)-c2cc(=O)c(C(=O)O)cn21 [Example 90, (S)-12-(furan-3-yl)-5-isopropyl-9-oxo-2,3,4,9-tetrahydro-5H-furo[3,2-f]pyrido[2,1-a]isoquinoline-8-carboxylic Acid]	> 7.00
CC(C)[C@@H]1Cc2c(cc(-c3ccccc3)c3c2CCO3)-c2cc(=O)c(C(=O)O)cn21 [Example 93, (S)-5-isopropyl-9-oxo-12-phenyl-2,3,4,9-tetrahydro-5H-furo[3,2-f]pyrido[2,1-a]isoquinoline-8-carboxylic Acid]	> 7.00
CC(C)(C)[C@@H]1Cc2c(cc(-c3cccc(Cl)c3)c3c2CCO3)-c2cc(=O)c(C(=O)O)cn21 [Example 85, (S)-5-(tert-butyl)-12-(3-chlorophenyl)-9-oxo-2,3,4,9-tetrahydro-5H-furo[3,2-f]pyrido[2,1-a]isoquinoline-8-carboxylic Acid]	> 7.00
CC(C)(C)[C@@H]1Cc2c(cc(N3CCC3)c3c2CCO3)-c2cc(=O)c(C(=O)O)cn21 [Example 111, (S)-12-(azetidin-1-yl)-5-(tert-butyl)-9-oxo-2,3,4,9-tetrahydro-5H-furo[3,2-f]pyrido[2,1-a]isoquinoline-8-carboxylic Acid]	> 7.00
